“Also recorded” adds a separate entry of the source.
Tests used:
[1] = test system: photoreceptor cell death in response to RD; assay: Mouse model of retinal detachment, TUNEL labeling of the ONL; assay type: in vivo, mice
Procedure: Briefly, RD was created in the right eye of adult mice (8-12 weeks), as previously reported (Hisatomi, T. et al., Am J Pathol, 2001, 158:1271-1278), with minor modification. Briefly, mice were anesthetized using a mixture of ketamine (80 mg/kg) and xylazine (8 mg/kg). Deep anesthesia was confirmed by a toe pinch test. One drop of proparacaine hydrochloride (0.5%) (Akorn, 17478-263-12) was administered to each eye. A self-sealing scleral incision was made using a 30 G needle. Next, an anterior chamber puncture was performed from the cornea to reduce intraocular pressure. A 33 G needle attached to a Hamilton 10 μl syringe was inserted into the subretinal space, and 4 μl sodium hyaluronate (Provisc®, Alcon) was gently injected to enlarge the RD (fundus Image of a retinal detachment; FIG. 7A) (Matsumoto, H. et al., J Vis Exp, 2013, (79)). After the injection, glue (Webglue™) was put on the scleral wound and the conjunctiva reattached to the original position. Photoreceptor apoptosis was assessed (12-72 hours post detachment) by identifying TUNEL positive cells in cross sections (FIGS. 7C and D).
Twenty-four hours post-injury, retinas were isolated and cross-sections were prepared for staining with DAPI (a nuclear marker) and TUNEL (a cell death marker). The mid-point of the retinal arc between the optic nerve and the edge of the retina was quantified for TUNEL positive cells.
The model of retinal detachment was performed precisely as described above with one modification: Prior to injecting the provisc 1 μl of the purified C3 antibody (0.1 μg) or IgG2a isotype control (Life Technologies, 02-9688) was injected into the sub-retinal space through the scleral tunnel. The eyes were enucleated 24 hours after RD and processed for TUNEL labeling as described earlier.

Fb = conditions: retina 24 hours after RD, mice kept in 75% oxygen vs room air
Procedure: RNA was isolated using an RNeasy micro kit (Qiagen, 74004, Valencia, Calif.) for LCM samples or an RNeasy mini kit (Qiagen, 74106, Valencia, Calif.) for whole retina. Total RNA was measured using a nanodrop spectrophotometer (Thermo Scientific, Nanodrop 2000, Waltham, Mass.) then each sample was normalized prior to transcribing cDNA. cDNA was transcribed using superscript III (Invitrogen, 18080-044, Carlsbad, Calif.) then one microliter of cDNA was used for each RTPCR reaction. […] Primers for Cd55 using photoreceptors isolated by LCM were obtained through Integrated DNA Technologies using their online Primer Quest design tool and importing the NCBI ID number for the sequence (Forward 5′-[sequence]-3′ (SEQ ID NO: 5) and Reverse 5′-[sequence]-3′ (SEQ ID NO: 6)). RTPCR was run in triplicate and the average of each CT value used for analysis. All CT values were normalized to beta actin from each sample as an internal control. Final values were determined using the MET method.
After 24 hours the mice were anesthetized under a heavy dose of avertin (2,2,2 tribromo ethanol, Sigma, T4, 840-2) at a working concentration of 10 mg/ml and injected at a dose of 0.25-0.5 mg/gram intraperitoneally. In one group the eyes were enucleated and frozen in OCT compound using isopropanol chilled by dry ice. The eyes were then processed for TUNEL labeling and quantified as described above. […]

Row | Compound | cell death (TUNEL positive cells in the ONL) ([1]; mice housed 24 hours after RD in a 75% oxygen chamber vs room air (approximately 21% oxygen)) | Fb expression, alternative pathway activation (Fb) | photoreceptor cell death (TUNEL positive cells in the ONL) ([1]; C3-/- mice, sub-retinal injection prior to Provisc, 24 hours after RD, vs PBS)
1 | O=O [75% oxygen, oxygen] | significant reduction in cell death | significantly less Fb expression | 
2 | cobra venom factor [CVF] |  |  | significant up-regulation of photoreceptor cell death; also recorded: increased photoreceptor cell death after RD

Source: patent US20160237146A1, “Methods of Preventing or Reducing Photoreceptor Cell Death” (MASSACHUSETTS EYE AND EAR INFIRMARY, priority 2013, published 2016)
